Measured values reported in US8481525B2, “Kinase inhibitors and method of treating cancer with same” (University of Health Network, priority 2009, dated 2013).
Where two headings read alike, the source gives them in different places. Values belong to the molecule of their own block, whether it stands above or below them.

Tests used:
KDR (VEGFR2) = KDR (VEGFR2) (Homo sapiens, UniProt P35968); assay: CEREP HTRF kinase selectivity assay; assay type: biochemical
FLT-3 = FLT-3 (Homo sapiens, UniProt P36888); assay: CEREP HTRF kinase selectivity assay; assay type: biochemical; conditions: FLT-3, 10 uM
Chain of FLT-3 (P36888 27-993): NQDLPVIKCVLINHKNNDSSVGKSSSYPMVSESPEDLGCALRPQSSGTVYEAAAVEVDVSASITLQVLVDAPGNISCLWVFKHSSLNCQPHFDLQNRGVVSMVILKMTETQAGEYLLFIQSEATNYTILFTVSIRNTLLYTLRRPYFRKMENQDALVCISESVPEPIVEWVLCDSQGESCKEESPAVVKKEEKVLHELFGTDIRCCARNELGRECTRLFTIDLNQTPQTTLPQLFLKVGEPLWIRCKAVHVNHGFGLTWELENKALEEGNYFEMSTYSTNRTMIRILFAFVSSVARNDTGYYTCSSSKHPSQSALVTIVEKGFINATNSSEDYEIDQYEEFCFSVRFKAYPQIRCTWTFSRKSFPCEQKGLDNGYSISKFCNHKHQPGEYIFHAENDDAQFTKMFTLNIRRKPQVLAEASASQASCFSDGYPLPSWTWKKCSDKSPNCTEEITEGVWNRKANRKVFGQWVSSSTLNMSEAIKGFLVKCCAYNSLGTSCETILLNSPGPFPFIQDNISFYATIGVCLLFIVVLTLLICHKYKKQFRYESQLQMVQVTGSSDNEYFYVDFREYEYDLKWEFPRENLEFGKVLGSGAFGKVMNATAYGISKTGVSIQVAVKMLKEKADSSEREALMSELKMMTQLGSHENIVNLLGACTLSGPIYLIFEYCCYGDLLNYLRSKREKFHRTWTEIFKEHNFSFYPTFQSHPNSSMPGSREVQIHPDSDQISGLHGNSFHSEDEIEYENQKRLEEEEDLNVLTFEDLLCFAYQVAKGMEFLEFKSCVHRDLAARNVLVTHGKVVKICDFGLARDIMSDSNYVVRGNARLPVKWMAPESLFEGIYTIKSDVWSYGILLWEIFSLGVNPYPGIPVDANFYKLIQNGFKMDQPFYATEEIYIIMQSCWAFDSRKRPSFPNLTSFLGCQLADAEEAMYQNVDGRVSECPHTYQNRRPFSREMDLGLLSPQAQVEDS

HUV-EC-C cells = assay: In Vitro Angiogenesis Assay (tube formation); conditions: HUV-EC-C cells on ECMatrix, 4 hr; FIGS. 1 and 2
CaMK4 = target: T1, CaMK4 (Homo sapiens, UniProt Q16566); assay: CEREP HTRF kinase selectivity assay; assay type: biochemical; conditions: CaMK4, 10 uM
T1 construct: CEREP
Experimental: (§1) The inhibitory activity of selected compounds of the invention was evaluated against a panel of 45 different kinase enzymes by CEREP, France. The assays were performed using standard HTRF assay methods as documented by CEREP against the human orthologues of Ab1 kinase, Akt1/PKBa, AMPKa, BMX kinase (Etk), Brk, CaMK2a, CaMK4, CDC2/CDK1 (cycB), CHK1, CHK2, c-Met kinase, CSK, EphB4 kinase, ERKI, ERK2 (P42mapk), FGFR2 kinase, FGFR4 kinase, FLT-1 kinase (VEGFR1), FLT-3 kinase, Fyn kinase, 1GF1R kinase, IRK (InsR), JNK 2, KDR kinase (VEGFR2), Lck kinase, Lyn kinase, MAPKAPK2, MEK1/MAP2K1, p38a kinase, p38d kinase, p38 g kinase, PDGFRb kinase, PDKI, PKA, PKCa, PKCb1, PKCb2, PKCg, Ret kinase, ROCK2, RSK2, Src kinase, Syk, and TRKA (Table 3). The % Inhibition was determined by the formula; % Inhibition=100×(1−(experimental value−background value)/(high activity control−background value)).

PDGFRbeta = PDGFRbeta (Homo sapiens, UniProt P09619); assay: CEREP HTRF kinase selectivity assay; assay type: biochemical
Experimental: as §1

Lck = Lck (Homo sapiens, UniProt P06239); assay: CEREP HTRF kinase selectivity assay; assay type: biochemical
Experimental: as §1

JNK 2 = JNK 2 (Homo sapiens, UniProt P45984); assay: CEREP HTRF kinase selectivity assay; assay type: biochemical; conditions: JNK 2, 10 uM
Experimental: as §1

PKCbeta 1 = PKCbeta 1 (Homo sapiens, UniProt P05771); assay: CEREP HTRF kinase selectivity assay; assay type: biochemical; conditions: PKCbeta 1, 10 uM
Experimental: as §1

MEK1/MAP2K1 = MEK1/MAP2K1 (Homo sapiens, UniProt Q02750); assay: CEREP HTRF kinase selectivity assay; assay type: biochemical; conditions: MEK1/MAP2K1, 10 uM
Experimental: as §1

p38delta = p38delta (Homo sapiens, UniProt O15264); assay: CEREP HTRF kinase selectivity assay; assay type: biochemical
Chain of p38delta (O15264 whole entry): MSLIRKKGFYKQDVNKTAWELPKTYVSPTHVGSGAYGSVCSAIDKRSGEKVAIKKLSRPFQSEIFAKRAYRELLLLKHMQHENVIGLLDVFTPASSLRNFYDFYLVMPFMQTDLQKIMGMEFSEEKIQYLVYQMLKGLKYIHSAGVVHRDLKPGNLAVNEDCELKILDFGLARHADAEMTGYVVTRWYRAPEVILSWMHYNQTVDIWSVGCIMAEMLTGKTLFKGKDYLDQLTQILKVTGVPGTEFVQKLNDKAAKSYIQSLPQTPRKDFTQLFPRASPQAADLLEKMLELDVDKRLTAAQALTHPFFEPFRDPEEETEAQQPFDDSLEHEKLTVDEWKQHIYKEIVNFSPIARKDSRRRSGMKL
Experimental: as §1

IGF1R = IGF1R (Homo sapiens, UniProt P08069); assay: CEREP HTRF kinase selectivity assay; assay type: biochemical
Experimental: as §1

c-Met = target: T2, c-Met (Homo sapiens, UniProt P08581); assay: CEREP HTRF kinase selectivity assay; assay type: biochemical
T2 construct: CEREP
Experimental: as §1

ERK (P42mapk) = target: T3, ERK (P42mapk) (Homo sapiens, UniProt P28482); assay: CEREP HTRF kinase selectivity assay; assay type: biochemical
T3 construct: CEREP
Experimental: as §1

Ret = Ret (Homo sapiens, UniProt P07949); assay: CEREP HTRF kinase selectivity assay; assay type: biochemical
Experimental: as §1

Abl = target: T4, Abl (Homo sapiens, UniProt P00519); assay: CEREP HTRF kinase selectivity assay; assay type: biochemical
T4 construct: CEREP
Experimental: as §1

PKCgamma = PKCgamma (Homo sapiens, UniProt P05129); assay: CEREP HTRF kinase selectivity assay; assay type: biochemical
Experimental: as §1

MAPKAPK2 = MAPKAPK2 (Homo sapiens, UniProt P49137); assay: CEREP HTRF kinase selectivity assay; assay type: biochemical; conditions: MAPKAPK2, 10 uM
Experimental: as §1

CHK1 = target: T5, CHK1 (Homo sapiens, UniProt O14757); assay: CEREP HTRF kinase selectivity assay; assay type: biochemical; conditions: CHK1, 10 uM
T5 construct: CEREP
T5 sequence (O14757 whole entry): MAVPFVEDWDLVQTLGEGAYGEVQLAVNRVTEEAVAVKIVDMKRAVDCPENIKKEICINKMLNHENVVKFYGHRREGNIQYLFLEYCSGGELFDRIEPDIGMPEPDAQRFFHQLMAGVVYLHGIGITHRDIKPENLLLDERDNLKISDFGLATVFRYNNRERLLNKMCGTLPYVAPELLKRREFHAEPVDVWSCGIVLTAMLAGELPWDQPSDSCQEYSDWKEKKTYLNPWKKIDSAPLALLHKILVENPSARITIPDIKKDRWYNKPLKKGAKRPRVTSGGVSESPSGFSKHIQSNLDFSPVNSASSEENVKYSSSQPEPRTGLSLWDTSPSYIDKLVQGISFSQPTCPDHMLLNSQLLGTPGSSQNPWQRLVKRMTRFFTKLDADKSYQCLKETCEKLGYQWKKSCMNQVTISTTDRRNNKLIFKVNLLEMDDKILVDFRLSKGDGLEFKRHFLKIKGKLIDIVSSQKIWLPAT
Experimental: as §1

ERK1 = target: T6, ERK1 (Homo sapiens, UniProt P27361); assay: CEREP HTRF kinase selectivity assay; assay type: biochemical; conditions: ERK1, 10 uM
T6 construct: CEREP
Experimental: as §1

FGFR4 = target: T7, FGFR4 (Homo sapiens, UniProt P22455); assay: CEREP HTRF kinase selectivity assay; assay type: biochemical; conditions: FGFR4, 10 uM
T7 construct: CEREP
Experimental: as §1

TRKA = target: T8, TRKA (Homo sapiens, UniProt P04629); assay: CEREP HTRF kinase selectivity assay; assay type: biochemical
T8 construct: CEREP, France (contract panel)
Experimental: as §1

CHK2 = target: T9, CHK2 (Homo sapiens, UniProt O96017); assay: CEREP HTRF kinase selectivity assay; assay type: biochemical; conditions: CHK2, 10 uM
T9 construct: CEREP
Experimental: as §1

PDK1 = PDK1 (Homo sapiens, UniProt O15530); assay: CEREP HTRF kinase selectivity assay; assay type: biochemical; conditions: PDK1, 10 uM
Chain of PDK1 (O15530 whole entry): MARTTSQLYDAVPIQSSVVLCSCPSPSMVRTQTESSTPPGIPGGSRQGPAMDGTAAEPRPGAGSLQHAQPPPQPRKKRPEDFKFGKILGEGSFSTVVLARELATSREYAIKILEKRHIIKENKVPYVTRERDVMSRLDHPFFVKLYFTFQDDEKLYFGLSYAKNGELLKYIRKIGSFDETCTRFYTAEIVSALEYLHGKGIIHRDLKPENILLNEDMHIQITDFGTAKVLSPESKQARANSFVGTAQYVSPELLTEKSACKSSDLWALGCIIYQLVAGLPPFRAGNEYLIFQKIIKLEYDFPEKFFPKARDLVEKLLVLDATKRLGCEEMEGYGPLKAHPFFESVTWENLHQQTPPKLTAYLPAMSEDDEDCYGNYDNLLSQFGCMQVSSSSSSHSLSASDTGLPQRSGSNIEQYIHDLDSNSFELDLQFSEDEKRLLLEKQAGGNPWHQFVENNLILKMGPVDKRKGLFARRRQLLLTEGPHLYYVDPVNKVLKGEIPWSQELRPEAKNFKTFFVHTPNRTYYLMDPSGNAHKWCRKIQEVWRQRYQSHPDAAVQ
Experimental: as §1

PKCbeta 2 = PKCbeta 2 (Homo sapiens, UniProt P05771); assay: CEREP HTRF kinase selectivity assay; assay type: biochemical; conditions: PKCbeta 2, 10 uM
Experimental: as §1

Brk = target: T10, Brk (Homo sapiens, UniProt Q13882); assay: CEREP HTRF kinase selectivity assay; assay type: biochemical
T10 construct: CEREP
Experimental: as §1

Src = Src (Homo sapiens, UniProt P12931); assay: CEREP HTRF kinase selectivity assay; assay type: biochemical
Experimental: as §1

BMX (Etk) = target: T11, BMX (Etk) (Homo sapiens, UniProt P51813); assay: CEREP HTRF kinase selectivity assay; assay type: biochemical
T11 construct: CEREP
Experimental: as §1

CSK = target: T12, CSK (Homo sapiens, UniProt P41240); assay: CEREP HTRF kinase selectivity assay; assay type: biochemical
T12 construct: CEREP
Experimental: as §1

Fyn = Fyn (Homo sapiens, UniProt P06241); assay: CEREP HTRF kinase selectivity assay; assay type: biochemical
Experimental: as §1

CDC2/CDK1 (cycB) = target: T13, CDC2/CDK1 (cycB) (Homo sapiens, UniProt P06493); assay: CEREP HTRF kinase selectivity assay; assay type: biochemical; conditions: CDC2/CDK1, 10 uM
T13 construct: CEREP
Experimental: as §1

p38gamma = p38gamma (Homo sapiens, UniProt P53778); assay: CEREP HTRF kinase selectivity assay; assay type: biochemical
Experimental: as §1

RSK2 = RSK2 (Homo sapiens, UniProt P51812); assay: CEREP HTRF kinase selectivity assay; assay type: biochemical; conditions: RSK2, 10 uM
Experimental: as §1

ROCK2 = ROCK2 (Homo sapiens, UniProt O75116); assay: CEREP HTRF kinase selectivity assay; assay type: biochemical; conditions: ROCK2, 10 uM
Experimental: as §1

IRK (InsR) = IRK (InsR) (Homo sapiens, UniProt P06213); assay: CEREP HTRF kinase selectivity assay; assay type: biochemical
Chain of IRK (InsR) (P06213 28-1382): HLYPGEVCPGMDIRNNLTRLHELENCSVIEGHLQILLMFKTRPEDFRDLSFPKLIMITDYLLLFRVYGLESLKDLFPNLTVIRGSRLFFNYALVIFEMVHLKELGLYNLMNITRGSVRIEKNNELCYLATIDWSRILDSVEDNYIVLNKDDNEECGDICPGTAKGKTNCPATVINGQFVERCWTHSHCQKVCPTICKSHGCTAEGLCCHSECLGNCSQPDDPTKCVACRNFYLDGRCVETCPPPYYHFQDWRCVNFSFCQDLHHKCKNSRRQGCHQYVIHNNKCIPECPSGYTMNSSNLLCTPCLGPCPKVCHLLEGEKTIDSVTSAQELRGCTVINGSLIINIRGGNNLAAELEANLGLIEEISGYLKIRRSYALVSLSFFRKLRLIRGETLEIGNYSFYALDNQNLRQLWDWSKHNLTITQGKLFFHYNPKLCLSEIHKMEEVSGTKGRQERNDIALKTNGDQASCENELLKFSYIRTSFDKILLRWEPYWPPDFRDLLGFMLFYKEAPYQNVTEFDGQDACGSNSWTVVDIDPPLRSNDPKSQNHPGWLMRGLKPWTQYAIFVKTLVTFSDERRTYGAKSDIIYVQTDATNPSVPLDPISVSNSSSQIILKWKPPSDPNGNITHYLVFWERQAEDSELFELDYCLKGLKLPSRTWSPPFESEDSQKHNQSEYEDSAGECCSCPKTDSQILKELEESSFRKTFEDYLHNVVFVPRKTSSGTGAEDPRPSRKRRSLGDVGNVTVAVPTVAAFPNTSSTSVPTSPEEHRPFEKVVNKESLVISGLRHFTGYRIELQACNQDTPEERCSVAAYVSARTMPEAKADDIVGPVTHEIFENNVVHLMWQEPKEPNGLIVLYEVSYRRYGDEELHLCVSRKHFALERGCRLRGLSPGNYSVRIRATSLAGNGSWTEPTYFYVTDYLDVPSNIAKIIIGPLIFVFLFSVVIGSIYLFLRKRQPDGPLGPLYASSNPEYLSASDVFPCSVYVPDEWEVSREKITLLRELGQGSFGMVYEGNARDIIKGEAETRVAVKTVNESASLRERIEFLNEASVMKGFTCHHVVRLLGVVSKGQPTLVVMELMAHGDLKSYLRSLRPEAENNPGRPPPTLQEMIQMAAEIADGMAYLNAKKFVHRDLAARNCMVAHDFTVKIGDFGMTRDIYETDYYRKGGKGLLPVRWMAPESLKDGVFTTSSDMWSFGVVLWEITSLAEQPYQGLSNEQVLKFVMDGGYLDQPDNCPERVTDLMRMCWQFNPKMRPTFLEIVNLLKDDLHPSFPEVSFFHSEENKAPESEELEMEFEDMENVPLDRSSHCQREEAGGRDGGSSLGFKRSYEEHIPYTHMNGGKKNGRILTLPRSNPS
Experimental: as §1

Akt1/PKBalpha = target: T14, Akt1/PKBalpha (Homo sapiens, UniProt P31749); assay: CEREP HTRF kinase selectivity assay; assay type: biochemical
T14 construct: CEREP
Experimental: as §1

PKA = PKA (Homo sapiens, UniProt P17612); assay: CEREP HTRF kinase selectivity assay; assay type: biochemical
Experimental: as §1

EphB4 = target: T15, EphB4 (Homo sapiens, UniProt P54760); assay: CEREP HTRF kinase selectivity assay; assay type: biochemical; conditions: EphB4, 10 uM
T15 construct: CEREP
Experimental: as §1

PKCalpha = PKCalpha (Homo sapiens, UniProt P17252); assay: CEREP HTRF kinase selectivity assay; assay type: biochemical
Experimental: as §1

p38alpha = p38alpha (Homo sapiens, UniProt Q16539); assay: CEREP HTRF kinase selectivity assay; assay type: biochemical
Experimental: as §1

Lyn = Lyn (Homo sapiens, UniProt P07948); assay: CEREP HTRF kinase selectivity assay; assay type: biochemical
Experimental: as §1

AMPKalpha = assay: CEREP HTRF kinase selectivity assay; assay type: biochemical, human
Experimental: as §1

[1] = test system: HCC1954 basal breast cancer cell line; assay: Cell growth inhibition, Sulforhodamine B assay (SRB); assay type: cell-based; conditions: Homo sapiens, HCC1954, 120 h, read-out: Cell Line GI50 Range HCC-1954
Outline: (§2)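 Cells were exposed to compound for 5 days, then fixed in situ with cold 10% TCA and stained with sulforhodamine B, with absorbance read at 570 nm.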

[2] = test system: SW620 colon cancer cell line; assay: as above; assay type: cell-based; conditions: Homo sapiens, SW-620, 120 h, 5 days culture, SRB
Outline: as §2

[3] = test system: human mammary epithelial primary cells (HMEC); assay: as above; conditions: 120 h, read-out: Cell Line GI50 Range HMEC
[4] = test system: MCF-7 luminal breast cancer cell line; assay: as above; assay type: cell-based; conditions: Homo sapiens, MCF7, 120 h; MCF-7 luminal breast cancer cell line; 5 days culture; SRB; read-out: Cell Line GI50 Range MCF-7
Outline: as §2

[5] = test system: MDA-MB-468 basal breast cancer cell line; assay: as above; assay type: cell-based; conditions: Homo sapiens, 120 h; MDA-MB-468 basal breast cancer cell line; 5 days culture; SRB; read-out: Cell Line GI50 Range MDA-MB-468
Outline: as §2

[6] = test system: A549 lung cancer cell line; assay: as above; assay type: cell-based; conditions: Homo sapiens, 120 h; A549 lung cancer cell line; 5 days culture; SRB; read-out: Cell Line GI50 Range A-549
Outline: as §2

Chain of KDR (VEGFR2) (P35968 20-1356): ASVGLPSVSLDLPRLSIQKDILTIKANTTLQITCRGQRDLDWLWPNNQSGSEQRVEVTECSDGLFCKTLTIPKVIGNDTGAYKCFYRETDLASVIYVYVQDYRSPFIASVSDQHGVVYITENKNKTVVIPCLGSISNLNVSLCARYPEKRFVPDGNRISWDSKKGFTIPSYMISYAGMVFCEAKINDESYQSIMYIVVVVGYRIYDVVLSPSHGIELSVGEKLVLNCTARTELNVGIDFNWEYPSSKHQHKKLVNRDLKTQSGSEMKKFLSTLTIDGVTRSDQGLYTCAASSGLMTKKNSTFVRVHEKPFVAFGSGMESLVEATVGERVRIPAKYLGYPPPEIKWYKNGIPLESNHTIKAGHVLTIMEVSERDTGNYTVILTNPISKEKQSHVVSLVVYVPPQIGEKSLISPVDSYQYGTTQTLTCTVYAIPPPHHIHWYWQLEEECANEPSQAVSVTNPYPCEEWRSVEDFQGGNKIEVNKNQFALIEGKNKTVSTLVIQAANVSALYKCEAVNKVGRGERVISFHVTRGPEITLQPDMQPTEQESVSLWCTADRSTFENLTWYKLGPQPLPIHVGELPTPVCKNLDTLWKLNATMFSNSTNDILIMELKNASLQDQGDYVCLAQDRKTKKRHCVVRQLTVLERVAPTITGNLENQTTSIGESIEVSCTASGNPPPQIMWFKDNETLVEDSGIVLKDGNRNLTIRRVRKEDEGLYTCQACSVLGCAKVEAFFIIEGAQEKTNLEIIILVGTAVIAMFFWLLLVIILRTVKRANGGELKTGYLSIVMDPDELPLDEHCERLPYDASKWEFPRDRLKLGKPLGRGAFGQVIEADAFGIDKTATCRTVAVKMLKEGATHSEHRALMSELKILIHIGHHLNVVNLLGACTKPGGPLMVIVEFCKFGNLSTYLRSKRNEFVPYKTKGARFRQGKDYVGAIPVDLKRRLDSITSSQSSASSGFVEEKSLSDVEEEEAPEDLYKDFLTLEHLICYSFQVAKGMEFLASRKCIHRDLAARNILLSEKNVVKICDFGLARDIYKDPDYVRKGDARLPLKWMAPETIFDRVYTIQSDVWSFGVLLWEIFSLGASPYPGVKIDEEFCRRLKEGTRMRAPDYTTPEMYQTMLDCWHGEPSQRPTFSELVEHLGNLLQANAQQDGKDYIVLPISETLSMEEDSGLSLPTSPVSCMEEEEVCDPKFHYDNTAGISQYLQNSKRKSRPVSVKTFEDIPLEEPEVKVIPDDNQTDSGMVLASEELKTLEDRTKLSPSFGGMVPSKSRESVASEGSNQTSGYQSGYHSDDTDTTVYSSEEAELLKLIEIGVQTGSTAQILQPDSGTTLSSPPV

SMILES: O=C1Nc2ccccc2[C@@]12C[C@@H]2c1ccc2c(/C=C/c3ccncc3)n[nH]c2c1 (racemic) [Example A22, (1R*,2S*)-(E)-2-(3-(2-(pyridin-4-yl)vinyl)-1H-indazol-6-yl)spiro-[cyclo-propane-1,3′-indolin]-2′-one]
inhibition at 10 µM (KDR (VEGFR2)): 98% | inhibition at 10 µM (FLT-3): 100% | anti-angiogenic effect (tube formation, % of control tube count) (HUV-EC-C cells): anti-agiogenic effects at submicromolar concentrations | inhibition at 10 µM (CaMK4): -8% | inhibition at 10 µM (PDGFRbeta): 88% | inhibition at 10 µM (Lck): 97% | inhibition at 10 µM (JNK 2): 32% | inhibition at 10 µM (PKCbeta 1): 0% | inhibition at 10 µM (MEK1/MAP2K1): 12% | inhibition at 10 µM (p38delta): -22% | inhibition at 10 µM (IGF1R): 22% | inhibition at 10 µM (c-Met): 97% | inhibition at 10 µM (ERK (P42mapk)): 11% | inhibition at 10 µM (Ret): 99% | inhibition at 10 µM (Abl): 97% | inhibition at 10 µM (PKCgamma): 8% | inhibition at 10 µM (MAPKAPK2): 4% | inhibition at 10 µM (CHK1): 37% | inhibition at 10 µM (ERK1): 8% | inhibition at 10 µM (FGFR4): 56% | inhibition at 10 µM (TRKA): 100% | inhibition at 10 µM (CHK2): 4% | inhibition at 10 µM (PDK1): 69% | inhibition at 10 µM (PKCbeta 2): 11% | inhibition at 10 µM (Brk): 41% | inhibition at 10 µM (Src): 26% | inhibition at 10 µM (BMX (Etk)): 71% | inhibition at 10 µM (CSK): 99% | inhibition at 10 µM (Fyn): 87% | inhibition at 10 µM (CDC2/CDK1 (cycB)): 93% | inhibition at 10 µM (p38gamma): -15% | inhibition at 10 µM (RSK2): 48% | inhibition at 10 µM (ROCK2): 88% | inhibition at 10 µM (IRK (InsR)): 21% | inhibition at 10 µM (Akt1/PKBalpha): -1% | inhibition at 10 µM (PKA): -6% | inhibition at 10 µM (EphB4): 99% | inhibition at 10 µM (PKCalpha): 7% | inhibition at 10 µM (p38alpha): 32% | inhibition at 10 µM (Lyn): 99%

SMILES: CN(C)Cc1ccc(/C=C/c2n[nH]c3cc([C@@H]4C[C@]45C(=O)Nc4ccccc45)ccc23)cc1 (racemic) [Example A26, (1R*,2R*)-(E)-2-(3-(4-((dimethylamino)methyl)styryl)-1H-indazol-6-yl)spiro[cyclopropane-1,3′-indolin]-2′-one 2,2,2-trifluoroacetate]
inhibition at 10 µM (KDR (VEGFR2)): 58% | % Inhibition @ 10 uM (AMPKalpha): 69% | GI50 [1]: 1000 to 10000 nM | GI50 ([2]; read-out: Cell Line GI50 Range SW-620, SW620 colon cancer cell line): 100 to 1000 nM | inhibition at 10 µM (FLT-3): 102%

GI50 ([1]; HCC1954 basal breast cancer cell line, 5 days culture, SRB): < 100 nM | GI50 [4]: < 100 nM | GI50 [5]: < 100 nM | GI50 ([2]; SW620 colon cancer cell line, read-out: Cell Line GI50 Range SW-620): < 100 nM | GI50 [6]: < 100 nM
SMILES: COc1ccc2c(c1)[C@@]1(C[C@@H]1c1ccc3c(/C=C/c4ccc(N5CCN(C(C)C)CC5)cc4)n[nH]c3c1)C(=O)N2 (racemic) [Example A189, (1R*,2S*)-(E)-2-(3-(4-(4-isopropylpiperazin-1-yl)styryl)-1H-indazol-6-yl)-5′-methoxyspiro[cyclopropane-1,3′-indolin]-2′-one 2,2,2-trifluoroacetate]
GI50 [3]: 1000 to 10000 nM
